Here are results for one cell line from the supplement of paper PMC10307832.

What all share (experiment): relative viability (nuclei count vs DMSO), 5 days (fraction); higher = more cells survive
Compound in the assay “Adavosertib + Dasatinib”: C=CCn1c(=O)c2cnc(Nc3ccc(N4CCN(C)CC4)cc3)nc2n1-c1cccc(C(C)(C)O)n1 [Adavosertib] + Cc1nc(Nc2ncc(C(=O)Nc3c(C)cccc3Cl)s2)cc(N2CCN(CCO)CC2)n1 [Dasatinib] (partner 0.075 µM)
In outline: (§1)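 Each reported value is a median over duplicate plates. It expresses relative viability: treated-well nuclei count divided by vehicle-well nuclei count. Lung cancer cell lines in 1536-well plates were dosed by pin tool a day after seeding, alone with one drug or with a fixed anchor-drug dose plus five library-drug doses (not always all listed) in √10 steps, and nuclei were counted after 5 days.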

Compound in the assay “Adavosertib + Olaparib”: C=CCn1c(=O)c2cnc(Nc3ccc(N4CCN(C)CC4)cc3)nc2n1-c1cccc(C(C)(C)O)n1 [Adavosertib] + O=C(c1cc(Cc2n[nH]c(=O)c3ccccc23)ccc1F)N1CCN(C(=O)C2CC2)CC1 [Olaparib] (partner 8 µM)
In outline:
as §1

Compound in the assay “Nelarabine + Bortezomib”: COc1nc(N)nc2c1ncn2[C@@H]1O[C@H](CO)[C@@H](O)[C@@H]1O [Nelarabine] + CC(C)C[C@H](NC(=O)[C@H](Cc1ccccc1)NC(=O)c1cnccn1)B(O)O [Bortezomib] (partner 0.002 µM)
The method, boiled down:
as §1

Compound in the assay “Nelarabine + Vorinostat”: COc1nc(N)nc2c1ncn2[C@@H]1O[C@H](CO)[C@@H](O)[C@@H]1O [Nelarabine] + O=C(CCCCCCC(=O)Nc1ccccc1)NO [Vorinostat] (partner 1 µM)
In outline: as §1

Take EMC-BAC-2: the relative viability with Adavosertib + Dasatinib (first compound 0.01 µM) amounted to 0.333; with Adavosertib + Dasatinib (first compound 0.03162 µM), 0.339; in the assay with Adavosertib + Dasatinib (first compound 0.1 µM) it was 0.324; with Adavosertib + Dasatinib (first compound 0.3162 µM), 0.261; with Adavosertib + Olaparib (first compound 0.03162 µM), 0.493; in the assay with Adavosertib + Olaparib (first compound 0.1 µM) it was 0.51. Moreover, the relative viability came to 0.453 in the assay with Adavosertib + Olaparib (first compound 0.3162 µM); 1.24 in the assay with Nelarabine + Bortezomib (first compound 0.01 µM); 1.06 with Nelarabine + Bortezomib (first compound 0.03162 µM); 1.05 with Nelarabine + Bortezomib (first compound 0.1 µM); 1.15 with Nelarabine + Bortezomib (first compound 0.3162 µM); 1.04 with Nelarabine + Bortezomib (first compound 1 µM). The relative viability with Nelarabine + Vorinostat (first compound 0.01 µM) was determined as 0.47; in the assay with Nelarabine + Vorinostat (first compound 0.03162 µM), 1.01; with Nelarabine + Vorinostat (first compound 0.1 µM) it was 0.643; in the assay with Nelarabine + Vorinostat (first compound 0.3162 µM), 0.441; with Nelarabine + Vorinostat (first compound 1 µM), 0.399.
